According to ChEMBL document CHEMBL1201862, “PubChem BioAssay data set” (2004):
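48-hour exposure; five concentrations; linearly interpolated endpoints. The concentration for 50% growth inhibition is given as GI50.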 The source made the active and inactive calls. Rule as the data show it: active = GI50 up to about 1.1 µM and inactive = higher.

Legend:
Assay in all cases: DTP human tumour cell line panel, 48 h
[1] = tested on: UACC-257
[2] = tested on: RXF 393
[3] = tested on: U-251
[4] = tested on: Hs-578T
[5] = tested on: HOP-62
[6] = tested on: BT-549
[7] = tested on: SN12C
[8] = tested on: HT-29
[9] = tested on: TK-10
[10] = tested on: NCI-H460
[11] = tested on: OVCAR-8
[12] = tested on: UACC-62
[13] = tested on: NCI-H226
[14] = tested on: SK-MEL-28
[15] = tested on: HCT-15
[16] = tested on: UO-31
[17] = tested on: OVCAR-4
[18] = tested on: MDA-MB-231
[19] = tested on: SW-620
[20] = tested on: MDA-MB-435
[21] = tested on: Malme-3M
[22] = tested on: LOX IMVI
[23] = tested on: HL-60
[24] = tested on: HOP-92
[25] = tested on: SR
[26] = tested on: ACHN
[27] = tested on: SK-OV-3
[28] = tested on: OVCAR-5
[29] = tested on: T47D
[30] = tested on: A549
[31] = tested on: SK-MEL-2
[32] = tested on: KM12
[33] = tested on: M14
[34] = tested on: NCI-H23
[35] = tested on: SF-295
[36] = tested on: PC-3
[37] = tested on: A498
[38] = tested on: 786-0
[39] = tested on: HCT-116
[40] = tested on: NCI-H522
[41] = tested on: SF-539
[42] = tested on: SF-268
[43] = tested on: MCF7
[44] = tested on: RPMI-8226
[45] = tested on: K562
[46] = tested on: IGROV-1
[47] = tested on: MDA-N
[48] = tested on: SK-MEL-5
[49] = tested on: DU-145
[50] = tested on: OVCAR-3
[51] = tested on: COLO 205
[52] = tested on: NCI/ADR-RES
[53] = tested on: MOLT-4
[54] = tested on: CAKI-1
[55] = tested on: EKVX
[56] = tested on: SNB-19
[57] = tested on: HCC 2998
[58] = tested on: SNB-75
[59] = tested on: CCRF-CEM

SMILES: O=C(O)C(Sc1ccc(Cl)cc1)Sc1ccc(Cl)cc1
- GI50 [1]: 44.5 µM (inactive)
- GI50 [2]: > 100 µM (inactive)
- GI50 [3]: 36.4 µM (inactive)
- GI50 [4]: 38.3 µM (inactive)
- GI50 [5]: 79.3 µM (inactive)
- GI50 [6]: 54.5 µM (inactive)
- GI50 [7]: 47 µM (inactive)
- GI50 [8]: 43.3 µM (inactive)
- GI50 [9]: 48.6 µM (inactive)
- GI50 [10]: 34 µM (inactive)
- GI50 [11]: 43.9 µM (inactive)
- GI50 [12]: 27.7 µM (inactive)
- GI50 [13]: 51.9 µM (inactive)
- GI50 [14]: 70 µM (inactive)
- GI50 [15]: 36 µM
- GI50 [16]: 29.7 µM (inactive)
- GI50 [17]: 48.4 µM (inactive)
- GI50 [18]: 66.8 µM (inactive)
- GI50 [19]: 58.7 µM (inactive)
- GI50 [20]: 43.1 µM (inactive)
- GI50 [21]: 71 µM (inactive)
- GI50 [22]: 41.9 µM (inactive)
- GI50 [23]: 33.8 µM (inactive)
- GI50 [24]: 23.7 µM (inactive)
- GI50 [25]: 39.6 µM (inactive)
- GI50 [26]: 47.4 µM (inactive)
- GI50 [27]: > 100 µM (inactive)
- GI50 [28]: 53 µM (inactive)
- GI50 [29]: 64 µM (inactive)
- GI50 [30]: 29.9 µM (inactive)
- GI50 [31]: 26.3 µM (inactive)
- GI50 [32]: 37.9 µM (inactive)
- GI50 [33]: 39.6 µM (inactive)
- GI50 [34]: 44.2 µM (inactive)
- GI50 [35]: 46.9 µM (inactive)
- GI50 [36]: 47.4 µM (inactive)
- GI50 [37]: 34.8 µM (inactive)
- GI50 [38]: 48 µM (inactive)
- GI50 [39]: 35.2 µM (inactive)
- GI50 [40]: 32.1 µM (inactive)
- GI50 [41]: 39.3 µM (inactive)
- GI50 [42]: 48.9 µM (inactive)
- GI50 [43]: 92.3 µM (inactive)
- GI50 [44]: 31.6 µM (inactive)
- GI50 [45]: 33.1 µM (inactive)
- GI50 [46]: 39.8 µM (inactive)
- GI50 [47]: 41.5 µM (inactive)
- GI50 [48]: 35.6 µM (inactive)
- GI50 [49]: 71 µM (inactive)
- GI50 [50]: 32.6 µM (inactive)
- GI50 [51]: 25.9 µM (inactive)
- GI50 [52]: 47.3 µM (inactive)
- GI50 [53]: 41.3 µM (inactive)
- GI50 [54]: 82.8 µM (inactive)
- GI50 [55]: 31.5 µM (inactive)
- GI50 [56]: 40.6 µM (inactive)
- GI50 [57]: 25.6 µM (inactive)
- GI50 [58]: 89.7 µM (inactive)
- GI50 [59]: 28.6 µM (inactive)

SMILES: Cc1ccc(/C=N/Nc2nncc3ccccc23)s1
- GI50 [1]: > 100 µM (inactive)
- GI50 [2]: > 100 µM (inactive)
- GI50 [3]: 53.2 µM (inactive)
- GI50 [4]: 35.6 µM (inactive)
- GI50 [5]: > 46.7 µM (inactive)
- GI50 [6]: > 55.8 µM (inactive)
- GI50 [7]: > 100 µM (inactive)
- GI50 [8]: > 100 µM (inactive)
- GI50 [9]: > 52 µM (inactive)
- GI50 [10]: > 100 µM (inactive)
- GI50 [11]: 65.2 µM (inactive)
- GI50 [12]: > 52.1 µM (inactive)
- GI50 [13]: > 69.2 µM (inactive)
- GI50 [14]: > 100 µM (inactive)
- GI50 [15]: > 100 µM
- GI50 [16]: > 100 µM (inactive)
- GI50 [17]: 26.3 µM (inactive)
- GI50 [18]: 33 µM (inactive)
- GI50 [19]: > 100 µM (inactive)
- GI50 [20]: 97.1 µM (inactive)
- GI50 [21]: > 75.9 µM (inactive)
- GI50 [22]: > 61.2 µM (inactive)
- GI50 [23]: > 100 µM (inactive)
- GI50 [24]: > 100 µM (inactive)
- GI50 [25]: > 100 µM (inactive)
- GI50 [26]: > 100 µM (inactive)
- GI50 [27]: > 84.1 µM (inactive)
- GI50 [28]: > 100 µM (inactive)
- GI50 [29]: > 100 µM (inactive)
- GI50 [30]: > 100 µM (inactive)
- GI50 [31]: > 95.3 µM (inactive)
- GI50 [32]: > 46.2 µM (inactive)
- GI50 [33]: > 67.5 µM (inactive)
- GI50 [34]: > 83.8 µM (inactive)
- GI50 [35]: 35.9 µM (inactive)
- GI50 [36]: 96.8 µM (inactive)
- GI50 [37]: > 100 µM (inactive)
- GI50 [38]: > 52.2 µM (inactive)
- GI50 [39]: 59.6 µM (inactive)
- GI50 [40]: 31.5 µM (inactive)
- GI50 [41]: 52.6 µM (inactive)
- GI50 [42]: > 58.1 µM (inactive)
- GI50 [43]: 19.5 µM (inactive)
- GI50 [44]: > 100 µM (inactive)
- GI50 [45]: > 100 µM (inactive)
- GI50 [46]: > 61 µM (inactive)
- GI50 [47]: > 61.4 µM (inactive)
- GI50 [48]: > 100 µM (inactive)
- GI50 [49]: > 31.6 µM (inactive)
- GI50 [50]: > 55.8 µM (inactive)
- GI50 [51]: > 100 µM (inactive)
- GI50 [52]: 48 µM (inactive)
- GI50 [53]: > 100 µM (inactive)
- GI50 [54]: > 100 µM (inactive)
- GI50 [55]: > 100 µM (inactive)
- GI50 [56]: > 100 µM (inactive)
- GI50 [57]: > 72.8 µM (inactive)
- GI50 [58]: > 44.2 µM (inactive)
- GI50 [59]: > 100 µM (inactive)

SMILES: O=c1[nH]/c(=C/c2ccc(OCc3ccccc3)cn2)c(=O)[nH]/c1=C/c1ccc(O)cc1
- GI50 [1]: 2.56 µM (inactive)
- GI50 [2]: 0.865 µM (active)
- GI50 [3]: 0.719 µM (active)
- GI50 [4]: 1.67 µM (inactive)
- GI50 [5]: 1.88 µM (inactive)
- GI50 [6]: 2.49 µM (inactive)
- GI50 [7]: 1.04 µM (active)
- GI50 [8]: 1.48 µM (inactive)
- GI50 [9]: 0.931 µM (active)
- GI50 [10]: 1.41 µM (inactive)
- GI50 [11]: 0.877 µM (active)
- GI50 [12]: 1.58 µM (inactive)
- GI50 [13]: 51.4 µM (inactive)
- GI50 [14]: 1.79 µM (inactive)
- GI50 [15]: 0.501 µM
- GI50 [16]: 0.622 µM (active)
- GI50 [17]: 0.219 µM (active)
- GI50 [18]: 1.6 µM (inactive)
- GI50 [19]: 0.537 µM (active)
- GI50 [20]: 0.109 µM (active)
- GI50 [21]: 2.34 µM (inactive)
- GI50 [22]: 0.507 µM (active)
- GI50 [23]: 0.298 µM (active)
- GI50 [24]: 11.6 µM (inactive)
- GI50 [25]: 1.4 µM (inactive)
- GI50 [26]: 1.67 µM (inactive)
- GI50 [27]: 4.99 µM (inactive)
- GI50 [28]: 8.32 µM (inactive)
- GI50 [29]: 1.76 µM (inactive)
- GI50 [30]: 3.05 µM (inactive)
- GI50 [31]: 1.33 µM (inactive)
- GI50 [32]: 1.23 µM (inactive)
- GI50 [33]: 0.94 µM (active)
- GI50 [34]: 1.16 µM (inactive)
- GI50 [35]: 8.85 µM (inactive)
- GI50 [36]: 1.13 µM (inactive)
- GI50 [37]: > 37.2 µM (inactive)
- GI50 [38]: 0.612 µM (active)
- GI50 [39]: 1.08 µM (active)
- GI50 [40]: 0.276 µM (active)
- GI50 [41]: 0.461 µM (active)
- GI50 [42]: 1.04 µM (active)
- GI50 [43]: 1 µM (active)
- GI50 [44]: 0.766 µM (active)
- GI50 [45]: 0.859 µM (active)
- GI50 [46]: 0.764 µM (active)
- GI50 [47]: 0.129 µM (active)
- GI50 [48]: 2.07 µM (inactive)
- GI50 [49]: 0.984 µM (active)
- GI50 [50]: 1.27 µM (inactive)
- GI50 [51]: 1.45 µM (inactive)
- GI50 [52]: 0.774 µM (active)
- GI50 [53]: 0.301 µM (active)
- GI50 [54]: 0.834 µM (active)
- GI50 [55]: 2.71 µM (inactive)
- GI50 [56]: 2.15 µM (inactive)
- GI50 [57]: 0.991 µM (active)
- GI50 [58]: 0.762 µM (active)
- GI50 [59]: 0.0454 µM (active)
